Assay results from patent US6683110B1, “Methyl esters of substituted 4-oxo-2-butenoic acid for treatment of tuberculosis” (University of Central Florida, priority 2001, dated 2004).

Tests used:
[1] = system: M. tuberculosis (ATCC 25177); experiment: BACTEC 460 TB radiometric growth inhibition bioassay (bacteriostatic activity); type: cell-based, Mycobacterium tuberculosis; conditions: final concentration of 0.1 mg/ml in Bactec 7H12 B+ medium; percent inhibition from growth index
[2] = in vivo; conditions: both sexes, mouse, ip, white mice, intraperitoneal injection of 2% solution in starch, 14 day observation
Description: Animal Toxicity Bioassay. Acute toxicity was studied on white mice of both sexes with weight ranging between 18-26 grams under intraperitoneal injection of 2% solution of tested compound in starch (the compound was dissolved in starch slime and injected) on the basis of 0.1 ml of solution per 10 g of the animal weight. Each dose was tested on the group of 6 animals that were observed during 14 day period. (This method was approved by the Pharmacology committee of Russian Ministry of Health and has been widely used since 1968.) Averaged lethal dose (LD50) of the compound was computed using results of experiments on 5-7 groups of animals using the method of Litchfield and Wilkinson. (Belenkii M. L. “Elements of quantative determination of the pharmacological effect,” Leningrad, 1963, 71 pages).
The acute toxicity of isoniazid is as following: LCLo (lowest published lethal concentration) for man is 100 mg/kg. […] All toxicity information about isoniazid can also be found on the web site: http://ntp-server.niehs.nih.gov/htdocs/Chem H&S/NTP Chem5/Radian54-85-3.html

[3] = Stability in solution; type: physicochemical; conditions: decomposes quickly when the solution is heated or stored for a long time, with formation of OF-12
[4] = system: man; conditions: cited from earlier work

| Compound | percent activity against Mycobacterium tuberculosis [1] [%] | LD50 at 14 day [2] [mg/kg] | Stability in solutions [3] | acute ingestion leading to mild toxicity ([4]; adults, acute ingestion) [g] | ingestion that may be fatal ([4]; adults, acute ingestion) [g] | ingestion usually fatal if not appropriately treated ([4]; adults, acute ingestion) [g] | LCLo (lowest published lethal concentration) ([4]; man) [mg/kg] |
| --- | --- | --- | --- | --- | --- | --- | --- |
| CCOc1ccc(C(=O)C=C(NN=C2c3ccccc3-c3ccccc32)C(=O)OC)cc1 [OF-12, 4-(4-Ethoxyphenyl)-2-(N′-fluoren-9-ylidenehydrazino)-4-oxobut-2-enoic acid methyl ester] | 81 | > 1500 |  |  |  |  |  |
| CCOc1ccc(C(=O)CC(O)(NN=C2c3ccccc3-c3ccccc32)C(=O)OC)cc1 (centres unmarked) [OF-13, 4-(4-Ethoxyphenyl)-2-(N′-fluoren-9-ylidenehydrazino)-2-hydroxy-4-oxobutyric acid methyl ester] | 88 | > 1500 | not stable in solutions |  |  |  |  |
| COC(=O)C(=CC(=O)C(C)(C)C)Nc1ccc(Br)cc1 [OF-15, 2-(4-Bromophenylamino)-5,5-dimethyl-4-oxohex-2-enoic acid methyl ester] | 98 | > 1500 |  |  |  |  |  |
| NNC(=O)c1ccncc1 [isoniazid, isonicotinic acid hydrazide] |  |  |  | ≥ 1.5 | 6 to 10 | 15 | 100 |
